# Assay results taken from patent US11932626B2, “2-pyrimidone analogs as potent antiviral agents against Alphaviruses” (priority 2020, dated 2024).
# pEC50: −log10 of the molar value.
# Columns and labels:
# [1] = in vitro; details: human
# [2] = system: CHIKV linked NanoLuc luciferase reporter; assay: microbe, parasite or virus in culture; assay type: cell-based; details: Chikungunya virus, read-out: CHIKV EC50
# [3] = system: VEEV; assay: microbe, parasite or virus in culture; assay type: cell-based; details: Venezuelan equine encephalitis virus, NHDF; for EC90: read-out: VEEV EC90; for log reduction at 10 µM: read-out: VEEV VTR
# [4] = system: CHIKV; assay: CHIKV virus titer reduction (VTR) assay in NHDF cells; assay type: cell-based; details: Chikungunya virus; for log reduction at 10 µM: CHIKV titer reduction at 10 μM, normal human dermal fibroblasts (NHDF) cells; for EC90: effective concentration of 90% inhibition of virus in a VTR assay, NHDF cells
# [5] = system: VEEV (TC-83); assay: microbe, parasite or virus in culture; assay type: cell-based; details: Venezuelan equine encephalitis virus, read-out: VEEV EC50
compound,measurement,setting,value
"O=C(COc1nc(=O)[nH]c2c1CCC2)NC12CC3CC(CC(C3)C1)C2 [compound 21, N-(Adamantan-1-Yl)-2-((2-Oxo-2,5,6,7-Tetrahydro-1H-Cyclopenta[D]Pyrimidin-4-Yl)Oxy)Acetamide]",CC50,[1],> 40000 nM
same,pEC50,[2],6.28
same,EC90,[3],1000 nM
same,log reduction at 10 µM,[3],5.2
same,log reduction at 10 µM,[4],4.26
same,EC90,[4],300 nM
same,pEC50,[5],4.80
"O=C(CSc1cc[nH]c(=O)n1)NC1C2CC3CC(C2)CC1C3 (stereo not drawn) [compound 4, N-(Adamantan-2-Yl)-2-((2-Oxo-1,2-Dihydropyrimidin-4-Yl)Thio)Acetamide]",CC50,[1],> 40000 nM
same,pEC50,[2],6.36
same,log reduction at 10 µM,[3],5.88
same,log reduction at 10 µM,[4],7.3
same,EC90,[4],610 nM
same,pEC50,[5],5.77
"O=C(COc1cc[nH]c(=O)n1)NC1C2CC3CC(C2)CC1C3 (stereo not drawn) [compound 8, N-(Adamantan-2-Yl)-2-((2-Oxo-1,2-Dihydropyrimidin-4-Yl)Oxy)Acetamide]",CC50,[1],> 40000 nM
same,pEC50,[2],< 4.40
same,EC90,[3],80 nM
same,log reduction at 10 µM,[3],1.94
same,log reduction at 10 µM,[4],1.05
same,EC90,[4],210 nM
same,pEC50,[5],< 4.40
"O=C(COc1cc(OC2CC(F)(F)C2)[nH]c(=O)n1)NC12CC3CC(CC(C3)C1)C2 [compound 47, N-(Adamantan-1-Yl)-2-((6-(3,3-Difluorocyclobutoxy)-2-Oxo-1,2-Dihydropyrimidin-4-Yl)Oxy)Acetamide]",CC50,[1],> 40000 nM
same,pEC50,[2],5.17
same,EC90,[3],> 10000 nM
same,log reduction at 10 µM,[3],0.28
same,log reduction at 10 µM,[4],5.66
same,EC90,[4],800 nM
same,pEC50,[5],< 4.40
"O=C(COc1nc(=O)[nH]c2ccccc12)NC12CC3CC(CC(C3)C1)C2 [compound 24, N-(Adamantan-1-Yl)-2-((2-Oxo-1,2-Dihydroquinazolin-4-Yl)Oxy)Acetamide]",CC50,[1],> 40000 nM
same,pEC50,[2],6.33
same,EC90,[3],3200 nM
same,log reduction at 10 µM,[3],1
same,log reduction at 10 µM,[4],6.28
same,EC90,[4],300 nM
same,pEC50,[5],< 4.40
"O=C(COc1nc(=O)[nH]cc1F)NC12CC3CC(CC(C3)C1)C2 [compound 26, N-(ADAMANTAN-1-YL)-2-((5-FLUORO-2-OXO-1,2-DIHYDROPYRIMIDIN-4-YL)OXY)ACETAMIDE]",CC50,[1],> 40000 nM
same,pEC50,[2],5.50
same,EC90,[3],100 nM
same,log reduction at 10 µM,[3],3.22
same,log reduction at 10 µM,[4],5.19
same,EC90,[4],300 nM
same,pEC50,[5],< 4.40
"O=C(COc1nc(=O)[nH]cc1Cl)NC12CC3CC(CC(C3)C1)C2 [compound 28, N-(Adamantan-1-Yl)-2-((5-Chloro-2-Oxo-1,2-Dihydropyrimidin-4-Yl)Oxy)Acetamide]",CC50,[1],> 40000 nM
same,pEC50,[2],4.48
same,EC90,[3],> 10000 nM
same,log reduction at 10 µM,[3],0.71
same,log reduction at 10 µM,[4],1.6
same,EC90,[4],10000 nM
same,pEC50,[5],< 4.40
"COc1[nH]c(=O)nc(OCC(=O)NC23CC4CC(CC(C4)C2)C3)c1F [compound 46, N-(adamantan-1-yl)-2-((5-fluoro-6-methoxy-2-oxo-1,2-dihydropyrimidin-4-yl)oxy)acetamide]",CC50,[1],> 40000 nM
same,pEC50,[2],< 4.40
same,EC90,[3],> 10000 nM
same,log reduction at 10 µM,[3],0
same,log reduction at 10 µM,[4],0.42
same,EC90,[4],> 10000 nM
same,pEC50,[5],< 4.40
"O=C(COc1cc(N2CCOCC2)[nH]c(=O)n1)NC12CC3CC(CC(C3)C1)C2 [compound 19, N-(Adamantan-1-Yl)-2-((6-Morpholino-2-Oxo-1,2-Dihydropyrimidin-4-Yl)Oxy)Acetamide]",CC50,[1],> 40000 nM
same,pEC50,[2],5.62
same,EC90,[3],3200 nM
same,log reduction at 10 µM,[3],4.4
same,log reduction at 10 µM,[4],4.84
same,EC90,[4],740 nM
same,pEC50,[5],4.48
"O=C(COc1cc(C2CCC2)[nH]c(=O)n1)NC12CC3CC(CC(C3)C1)C2 [compound 12, N-(Adamantan-1-Yl)-2-((6-Cyclobutyl-2-Oxo-1,2-Dihydropyrimidin-4-Yl)Oxy)Acetamide]",CC50,[1],> 40000 nM
same,pEC50,[2],6.96
same,EC90,[3],100 nM
same,log reduction at 10 µM,[3],3.1
same,log reduction at 10 µM,[4],3.31
same,EC90,[4],100 nM
same,pEC50,[5],5.73
